Measured values from patent publication US20220000860A1, “COMPOUNDS, COMPOSITIONS, AND METHODS FOR TREATING HUMAN IMMUNODEFICIENCY VIRUS” (OYAGEN, INC., priority 2017, published 2022).
Where two headings read alike, the source gives them in different places.

Tests used:
[1] = target: T1, pNL4-3 Vif (Vif multimerization) (Human immunodeficiency virus type 1 group M subtype B, UniProt P12504); experiment: Vif FqRET Multimerization Assay; assay type: cell-based, HIV
T1 construct: expressed in transfected cells; host or cells: HEK293T
From the text: The quenched fluorescence resonance energy transfer (FqRET) cell-based assay utilized expression of pNL4-3 Vif (accession no. M19921) tagged separately with either a EGFP fluorophore (EGFP-V5-Vif) or a REACh2 quencher (Vif-HA-REACh2) in the pIRES-P vector. The Vif multimerization assay was established through robotic co-transfection of HEK293T (293T) cells with Turbofect (Thermo) and optimized for input plasmid ratio (1:4, fluorophore to quencher) to achieve maximum quench of fluorescent signal. EGFP fluorescence was quantified 24 hours after transfection with a BioTek Synergy4 plate reader (ex=485 nm, em=528 nm) followed by the addition of 0-30 μM compound. The plates were read a second time 24 hours after compound addition. The differential between the first and second read in each well was quantified relative to the DMSO control to determine the change in relative fluorescence units (ΔRFU)
The interaction of 2 molecules of Vif (i.e. dimerization) enables quenching of Enhanced Green Fluorescent Protein (EGFP) signal by Resonance Energy Accepting Chromophore 2 (REACh2), a dark mutant of yellow fluorescent protein that is capable of accepting the EGFP donor fluorescence and quenching its signal without an acceptor signal.

[2] = test system: Vif-dependent APOBEC3G degradation; experiment: Vif-Dependent APOBEC3G Degradation Assay; assay type: cell-based, HIV
Method: APOBEC3G-V5-mCherry was stably expressed from the pIRES-P vector in 293T cells under puromycin selection. Fifty ng of plasmid expressing Vif-HA (accession no. AB573087) was transfected into the cells in 384-well format with Turbofect on a liquid handling robot. Four hours after transfection the compounds were added to cells in a range from 0-15 μM. Twenty-four hours after compound addition mCherry fluorescence was read on a BioTek Synergy4 plate reader (ex=587 nm, em=610 nm). Relative fluorescence units (RFU) from compound treated wells were quantified using thresholds set by the −Vif (positive control) and +Vif (negative control).

[3] = test system: 00KE_KER2008 (Subtype A); experiment: PBMC Acute Infection, 00KE_KER2008; assay type: cell-based, HIV
Method: (§1) PHA-stimulated cells from at least two normal donors were pooled (i.e. mixed together), diluted in fresh medium to a final concentration of 1×10^6 cells/mL, and plated in the interior wells of a 96-well round bottom microplate at 50 μL/well (5×10^4 cells/well). Pooling of mononuclear cells from more than one donor was used to minimize the variability observed between individual donors in quantitative and qualitative differences in HIV infection and overall response to the PHA and IL-2 of primary lymphocyte populations. Each plate contained virus control wells (cells plus virus) and experimental wells (drug plus cells plus virus) of either 00KE_KER2008 (Subtype A), IIIB (Subtype B), or 98US_MSC5016 (Subtype C). Test drug dilutions were prepared at a 2×concentration and 100 μL of each concentration was placed in appropriate wells. Fifty μL of a predetermined dilution of virus stock was placed in each test well (final MOI≅0.1). After this period, cell-free supernatant samples were collected for analysis of reverse transcriptase (RT) activity with an RT assay. […] In the Table below SI50=CC50/EC50 and SI90=CC90/EC90.

[4] = test system: IIIB (Subtype B); experiment: PBMC Acute Infection, IIIB; assay type: cell-based, HIV
Method: as §1

[5] = test system: 98US_MSC5016 (Subtype C); experiment: PBMC Acute Infection, 98US_MSC5016; assay type: cell-based, HIV
Method: as §1

[6] = PBMC Acute Infection, cytotoxicity (CC50/CC90); assay type: cell-based; conditions: human
Method: as §1

[7] = test system: PBMCs; experiment: PBMC Acute Infection, cytotoxicity (CC50/CC90); assay type: cell-based
Method: as §1

[8] = target: T2, topoisomerase I (TOP1) (Homo sapiens, UniProt P11387); experiment: topoisomerase I inhibition
T2 sequence (P11387 1-765): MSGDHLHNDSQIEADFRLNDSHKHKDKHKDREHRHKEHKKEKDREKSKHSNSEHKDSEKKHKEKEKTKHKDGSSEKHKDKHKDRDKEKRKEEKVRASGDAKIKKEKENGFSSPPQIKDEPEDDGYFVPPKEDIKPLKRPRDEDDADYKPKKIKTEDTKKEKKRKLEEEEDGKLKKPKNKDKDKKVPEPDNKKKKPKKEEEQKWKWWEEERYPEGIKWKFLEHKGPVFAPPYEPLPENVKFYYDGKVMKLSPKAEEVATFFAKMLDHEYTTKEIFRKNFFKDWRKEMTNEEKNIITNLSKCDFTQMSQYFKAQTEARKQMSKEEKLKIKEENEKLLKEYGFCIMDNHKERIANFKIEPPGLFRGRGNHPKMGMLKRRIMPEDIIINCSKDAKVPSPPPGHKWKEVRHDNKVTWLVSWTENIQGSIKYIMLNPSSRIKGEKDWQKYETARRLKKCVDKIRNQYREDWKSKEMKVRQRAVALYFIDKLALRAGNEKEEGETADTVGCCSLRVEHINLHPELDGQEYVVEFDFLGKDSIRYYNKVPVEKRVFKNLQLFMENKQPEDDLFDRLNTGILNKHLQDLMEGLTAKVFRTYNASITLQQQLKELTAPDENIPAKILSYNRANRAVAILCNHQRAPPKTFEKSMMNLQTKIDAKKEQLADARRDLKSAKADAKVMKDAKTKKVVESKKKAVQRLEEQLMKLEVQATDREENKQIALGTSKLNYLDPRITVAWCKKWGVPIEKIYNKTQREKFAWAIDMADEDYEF

[9] = target: T2, topoisomerase I (TOP1); conditions: comparison statement; cited from earlier work
[10] = target: T3, recombinant HIV (pNL4-3) heterodimeric (p66/p51) Reverse Transcriptase (Human immunodeficiency virus type 1 group M subtype B, UniProt P12497); experiment: reverse transcriptase assay; assay type: biochemical
T3 construct: purified recombinant HIV (pNL4-3) heterodimeric (p66/p51) Reverse Transcriptase (RT); purchased
Method: For the assays listed in Table I, the integrase assay was conducted using the XpressBio HIV-1 Integrase Assay Kit according to the manufacture's protocol. The protease assay was conducted with the Anthranilyl (Abz)-HIV Protease Substrate (Bachem H-2992), a hexapeptide FRET substrate derived from the p24/p15 cleavage site of the viral gag-pol poly-protein, which allows the screening of potential HIV protease inhibitors. 1 mM Abz-Substrate was diluted with Assay Buffer to a working stock of 20 μM. A 50 μM stock HIV-1 protease (received from Sook-kyung Lee (UNC)) was diluted with Assay Buffer (50 mM HEPES, pH 6.8, 150 mM NaCl, and 1% DMSO) to a working stock of 100 nM. 2 μl 100 nM HIV-1 Protease along with 2 uL 20 μM Abz Substrate was added into each well and incubated at room temperature (avoiding light) for 1 hour before being read on an Envision plate reader (Perkin Elmer) excitation at 280 nm, emission at >435 nm. The reverse transcriptase assay utilized purified recombinant HIV (pNL4-3) heterodimeric (p66/p51) Reverse Transcriptase (RT) that was purchased from a commercially available source. The assay was performed in 96-well filter plate, where RT activity was determined by the incorporation of radiolabeled deoxyribonucleotides into the newly synthesized DNA strand. The RT reaction mixture contained in vitro transcribed viral RNA derived from the HIV-1NL4-3 5′-LTR region (position 454 to 652) and primer that is complementary to the primer binding site (PBS, nucleotide residues nucleotides 636 to 652), radiolabeled deoxyribonucleotide, dNTPs and reverse transcriptase. Briefly, the reaction was carried out in a volume of 50 μl containing 50 mM Tris HCl, pH 7.8, 50 mM KCl, 5 mM MgCl2, 1 mM DTT, 50 μM each of dATP, dCTP, dGTP, 50 nM dTTP, 1 μCi of [^3H] dTTP (70-90 Ci/mM) and 5 nM template/primer. The reaction was initiated by the addition of 10 nM RT. For compound screening, serially diluted test articles were added to the reaction followed by the addition of RT. The reaction mixture was incubated at 37° C. for 1 h, and then quenched by the addition of ice-cold trichloroacetic acid (TCA) to the final concentration of 10%. The plate was incubated at 4° C. for 1 h to precipitate the synthesized DNA, then rinsed 3-times with 10% TCA and 1 time with 70% ethanol. After addition of 25 μl scintillation fluid to completely dried wells, radioactivity is counted by MicroBeta scintillation counter. The reduction of radioactivity represents the potency of compound inhibition.

[11] = Human immunodeficiency virus 1, read-out: A3G degradation at
[12] = row of isolate 00KE-KER2008, subtype A
[13] = row of isolate 98US_MSC5016, subtype C
[14] = Human immunodeficiency virus 1, PBMC
[15] = Human immunodeficiency virus 1, IIIB

T1 sequence (P12504 whole entry): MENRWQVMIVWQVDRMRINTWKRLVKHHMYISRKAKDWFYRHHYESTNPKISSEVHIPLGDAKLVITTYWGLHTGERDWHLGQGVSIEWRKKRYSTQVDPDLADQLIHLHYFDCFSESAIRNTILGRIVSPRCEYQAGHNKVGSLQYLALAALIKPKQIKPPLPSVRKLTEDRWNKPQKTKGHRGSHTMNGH

For `CC[C@@]1(O)C(=O)NCc2c1cc1n(c2=O)Cc2cc3c(N)cccc3nc2-1` [Compound O5-9A, (S)-10-Amino-4-ethyl-4-hydroxy-1,2-dihydroquinolino[2′,3′:3,4]pyrrolo[1,2-b][2,7]naphthyridine-3,14(4H,12H)-dione], the EC50 [1] was 3.87 µM, the “Vif multimerization (result in words)” value [1] was “block” and the “Vif-dependent A3G degradation (result in words)” value [2] was “block”. The EC50 ([2]; Human immunodeficiency virus 1, HEK-293T, 24 h, read-out: EC50, A3G Degradation Assay) was 1.2 µM, the EC50 [2, 11] was 1 µM and the EC50 ([3]; Human immunodeficiency virus 1, PBMC, isolate 00KE-KER2008, subtype A, RT activity readout, read-out: EC50) was 0.05 µM. The EC90 ([3]; Human immunodeficiency virus 1, PBMC, isolate 00KE-KER2008, subtype A, RT activity readout, read-out: EC90) was 0.23 µM, the EC50 ([4]; Human immunodeficiency virus 1, isolate IIIB, subtype B, RT activity readout, read-out: EC50) was 0.15 µM and the EC90 ([4]; Human immunodeficiency virus 1, isolate IIIB, subtype B, RT activity readout, read-out: EC90) was 0.31 µM. The EC50 ([5]; Human immunodeficiency virus 1, PBMC, isolate 98US_MSC5016, subtype C, RT activity readout, read-out: EC50) was 0.06 µM, the EC90 ([5]; Human immunodeficiency virus 1, PBMC, isolate 98US_MSC5016, subtype C, RT activity readout, read-out: EC90) was 0.22 µM and the CC50 [6, 12] was 9.32 µM. The CC90 [6, 12] was over 100 µM, the CC50 [6, 13] was 9.32 µM and the CC50 ([6]; row of isolate IIIB, subtype B) was 10 µM. The CC90 [7, 13] was over 100 µM, the CC90 ([7]; row of isolate IIIB, subtype B) was over 100 µM and the “inhibition of topoisomerase I (TOP1) (result in words)” value [8] was “do not inhibit”.
In the case of `CCc1c2c(nc3ccc(OC(=O)N4CCC(N5CCCCC5)CC4)cc13)-c1cc3c(c(=O)n1C2)CNC(=O)[C@]3(O)CC` [Irino-L, (S)-4,11-diethyl-4-hydroxy-3,14-dioxo-1,2,3,4,12,14-hexahydroquinolino[2′,3′:3,4]pyrrolo[1,2-b][2,7]naphthyridin-9-yl [1,4′-bipiperidine]-1′-carboxylate], the EC50 [2, 11] is reported as 5 µM, the EC50 [3, 14] is reported as 2.26 µM and the EC90 [3, 14] is reported as 7.71 µM. The EC50 [4, 15] was 2.29 µM, the EC90 [4, 15] was 7.92 µM and the EC50 [5, 14] was 1.85 µM. For the same molecule, the EC90 [5, 14] was 7.11 µM, the CC50 [6, 12] was 17.7 µM and the CC90 [6, 12] was 82.8 µM.
For `CC[C@@]1(O)C(=O)OCc2c1cc1n(c2=O)Cc2cc3ccccc3nc2-1` [camptothecin], the “inhibition of topoisomerase I (TOP1) (result in words)” value [9] is listed as “inhibit”.
For `Cc1ccnc2c1NC(=O)c1cccnc1N2C1CC1` [nevirapine, reference compound], the IC50 [10] was 0.23 µM.
